The assay concerns HEK293T cells stably transfected with 8×TBD luciferase reporter and pRLTK. Description: YAP Reporter Assay (8×TBD firefly luciferase reporter). Type of assay: cell-based. The settings on record: Homo sapiens, HEK-293T; HEK293T 8×TBD reporter cells, 24-hr incubation, top concentration 3 μM, 1:3 dilution, 10 points. The protocol: HEK293T cells stably transfected with 8×TBD luciferase reporter and pRLTK in 384-well plates were treated with the test compounds, starting from 3 μM (final concentration in assay plate), 1:3 dilution, and 10 points in quadruplicates. Post 24-hr incubation with compounds at 37° C. and 5% CO2, cells were lysed and 8×TBD-driven firefly luciferase and control TK-driven renilla luciferase activities were measured using Promega Dual-Luciferase Reporter Assay System.
Reagents: The reagents used for this study are: DMEM: Invitrogen #11960077, Dual-Glo Luciferase Assay System: Promega-E2980, Puromycin Dihydrochloride: Invitrogen-A1113803, 384-well plate: PerkinElmer-6007480, L-GLUTAMINE: Invitrogen-25030164, Hygromycin B: Invitrogen-10687010, and Penicillin-Streptomycin: Merk-TMS-AB2-C
Media: The media used for this assay were: Culture Medium: DMEM+1 ug/mL puromycin+200 ug/mL hygromycin (with 10% FBS+1 mM L-glutamine); and Assay Medium: DMEM (with 10% FBS+1 mM L-glutamine+1×P/S).
Cell Plating: The appropriate media was warmed at 37° C. by water bath: Culture Medium, Assay Medium, 1*D-PBS, 0.05% trypsin-EDTA. The cells were trypsinized after removing all media, then washed with 1* sterile D-PBS and then with 2 ml 0.05% trypsin-EDTA. The cells were then incubated at RT for one minute. Then 10 ml/75 cm2 flask Assay Medium was added to each flask. Using a 10 ml pipette, the cells were then gently resuspended in the media, until the clumps completely disappeared. The cells were then transferred into 50 ml centrifuge tubes and were centrifuged at 800 rpm for 5 mins. The medium was removed and the cells were resuspended with Assay Medium. An aliquot of cells was used to count the cell density (cells/ml). The cell suspension was then diluted with Assay Medium to a concentration of 6×10^4 cells/ml. 50 ul cells suspension was then plated to 384-well plate (PerkinElmer-6007480), 3×10^3 cells/well and the cells were incubated in an incubator at 37° C., 5% CO2.
Compound Treatment: In the afternoon (incubation of the plate with 3-4 hrs), the test compounds were added by Echo, starting from 3 uM (final concentration in the assay plate), 1:3 dilution, 10 points, quadruplicates. The plate was placed at 37° C., 5% CO2 incubator for 24 hrs.
Detection: The Dual-Glo Luciferase Reagent was prepared by transferring the contents of one bottle of Dual-Glo Luciferase Buffer to one bottle of Dual-Glo Luciferase Substrate to create the Dual-Glo Luciferase Reagent. Mixing was performed by inversion until the substrate was thoroughly dissolved. After mixing, the reagent was aliquoted into 15 ml tubes. In the afternoon (24 hrs post compound treatment), the DMEM+ medium in the 384 well plates were aspirated by Microplate Washer.
Measuring firefly luciferase activity: 20 ul Dual-Glo Luciferase Reagent was added to the 384-well plates. The plates were protected from light to prevent interference with the assay. The plates were shaken for 1 min followed centrifuging plates at 1000 rpm for 30 seconds. After waiting at least 10 minutes, the firefly luminescence was measured by Envision.
Measuring renilla luciferase activity: 20 ul Stop-Glo Reagent was added to the 384-well plates. The plates were shaken for 1 min and then centrifuged at 1000 rpm for 30 seconds. After waiting at least 10 minutes, the renilla luminescence was measured by Envision.
Compound IC50 and maximum inhibition on the firefly luciferase and renilla luciferase activities were reported separately.

With `COC(=O)c1ccc(Nc2ccc(C(F)(F)F)cc2)c(-c2nnn(C)n2)c1` [Compound 1, methyl 3-(2-methyl-2H-tetrazol-5-yl)-4-((4-(trifluoromethyl)phenyl)amino)benzoate], the half-maximal inhibitory concentration (IC50) is ≤ 100 nM.

In the case of `COC(=O)c1ccc(Nc2cccc(C(F)(F)F)c2)c(-c2nnn(C)n2)c1` [Compound 2, methyl 3-(2-methyl-2H-telrazol-5-yl)-4-((3-(trifluoromethyl)phenyl)amino)benzoate], the half-maximal inhibitory concentration (IC50) was ≤ 100 nM.

For the molecule `Cn1nnc(-c2cc(C(=O)O)ccc2Nc2ccc(C(F)(F)F)cc2)n1` [Compound 3, 3-(2-methyl-2H-tetrazol-5-yl)-4-((4-(trifluoromethyl)phenyl)amino) benzoic acid], the IC50 was ≤ 100 nM.

Take `Cn1nnc(-c2cc(C(=O)O)ccc2Nc2cccc(C(F)(F)F)c2)n1` [Compound 4, 3-(2-methyl-2H-tetrazol-5-yl)-4-((3-(trifluoromethyl)phenyl)amino) benzoic acid]: the IC50 is ≤ 100 nM.

Regarding `CNC(=O)c1ccc(Nc2cccc(C(F)(F)F)c2)c(-c2nnn(C)n2)c1` [Compound 5, N-methyl-3-(2-methyl-2H-tetrazol-5-yl)-4-((3-(trifluoromethyl)phenyl)amino) benzamide], the half-maximal inhibitory concentration (IC50) is ≤ 100 nM.

On to `Cn1nnc(-c2cc(C(N)=O)ccc2Nc2cccc(C(F)(F)F)c2)n1` [Compound 6, 3-(2-methyl-2H-tetrazol-5-yl)-4-((3-(trifluoromethyl)phenyl)amino) benzamide], for which the 50% inhibitory concentration (IC50) is ≤ 100 nM.

`Cn1nnc(-c2cc(C(N)=O)ccc2Nc2ccc(C(F)(F)F)cc2)n1` [Compound 7, 3-(2-methyl-2H-tetrazol-5-yl)-4-((4-(trifluoromethyl)phenyl)amino) benzamide]: the concentration for half-maximal inhibition (IC50) is ≤ 100 nM.

Regarding `CNC(=O)c1ccc(Nc2ccc(C(F)(F)F)cc2)c(-c2nnn(C)n2)c1` [Compound 8, N-methyl-3-(2-methyl-2H-tetrazol-5-yl)-4-((4-(trifluoromethyl)phenyl)amino) benzamide], the IC50 is ≤ 100 nM.

Regarding `CCNC(=O)c1ccc(Nc2ccc(C(F)(F)F)cc2)c(-c2nnn(C)n2)c1` [Compound 10, N-ethyl-3-(2-methyl-2H-tetrazol-5-yl)-4-((4-(trifluoromethyl)phenyl)amino) benzamide], the IC50 is ≤ 100 nM.

On to `CC(C)NC(=O)c1ccc(Nc2ccc(C(F)(F)F)cc2)c(-c2nnn(C)n2)c1` [Compound 11, N-isopropyl-3-(2-methyl-2H-tetrazol-5-yl)-4-((4-(trifluoromethyl)phenyl)amino) benzamide], for which the half-maximal inhibitory concentration (IC50) was ≤ 100 nM.

`COC(=O)c1ccc(Nc2ccc(C(=O)NC(C)C)cc2)c(-c2nnn(C)n2)c1` [Compound 12, methyl 4-((4-(isopropylcarbamoyl)phenyl)amino)-3-(2-methyl-2H-tetrazol-5-yl)benzoate] had an IC50 of 1000 to 3000 nM.

In the case of `CN(C)C(=O)c1ccc(Nc2ccc(C(F)(F)F)cc2)c(-c2nnn(C)n2)c1` [Compound 13, N,N-dimethyl-3-(2-methyl-2H-tetrazol-5-yl)-4-((4-(trifluoromethyl)phenyl)amino) benzamide], the IC50 lay within 100 to 1000 nM.

As for `Cn1nnc(-c2cc(C(=O)NS(C)(=O)=O)ccc2Nc2ccc(C(F)(F)F)cc2)n1` [Compound 15, 3-(2-methyl-2H-tetrazol-5-yl)-N-(methylsulfonyl)-4-((4-(trifluoromethyl)phenyl)amino) benzamide], the IC50 was ≤ 100 nM.

The molecule `CCN(CC)C(=O)c1ccc(Nc2ccc(C(F)(F)F)cc2)c(-c2nnn(C)n2)c1` [Compound 17, N,N-diethyl-3-(2-methyl-2H-tetrazol-5-yl)-4-((4-(trifluoromethyl)phenyl)amino) benzamide] returned an IC50 of 100 to 1000 nM.

Regarding `CN(C)C(=O)c1ccc(Nc2cccc(C(F)(F)F)c2)c(-c2nnn(C)n2)c1` [Compound 19, N,N-dimethyl-3-(2-methyl-2H-tetrazol-5-yl)-4-((3-(trifluoromethyl)phenyl)amino) benzamide], the 50% inhibitory concentration (IC50) fell in the range of 100 to 1000 nM.

As for `CCN(CC)C(=O)c1ccc(Nc2cccc(C(F)(F)F)c2)c(-c2nnn(C)n2)c1` [Compound 20, N,N-diethyl-3-(2-methyl-2H-tetrazol-5-yl)-4-((3-(trifluoromethyl)phenyl)amino) benzamide], the IC50 was in the range of 100 to 1000 nM.

Turning to `CC(C)NC(=O)c1ccc(Nc2cccc(C(F)(F)F)c2)c(-c2nnn(C)n2)c1` [Compound 21, N-isopropyl-3-(2-methyl-2H-tetrazol-5-yl)-4-((3-(trifluoromethyl)phenyl)amino) benzamide], the 50% inhibitory concentration (IC50) was ≤ 100 nM.

For `CCNC(=O)c1ccc(Nc2cccc(C(F)(F)F)c2)c(-c2nnn(C)n2)c1` [Compound 22, N-ethyl-3-(2-methyl-2H-tetrazol-5-yl)-4-((3-(trifluoromethyl)phenyl)amino) benzamide], the IC50 is ≤ 100 nM.

Turning to `Cn1nnc(-c2cc(C(=O)NS(C)(=O)=O)ccc2Nc2cccc(C(F)(F)F)c2)n1` [Compound 23, 3-(2-methyl-2H-tetrazol-5-yl)-N-(methylsulfonyl)-4-((3-(trifluoromethyl)phenyl)amino) benzamide], the IC50 is ≤ 100 nM.

With `COC(=O)c1ccc(Nc2ccc(C(F)(F)F)cc2)c(-c2nnn(Cc3ccccc3F)n2)c1` [Compound 24, methyl 3-(2-(2-fluorobenzyl)-2H-tetrazol-5-yl)-4-((4-(trifluoromethyl)phenyl)amino) benzoate], the half-inhibitory concentration (IC50) was 100 to 1000 nM.

For `O=C(O)c1ccc(Nc2ccc(C(F)(F)F)cc2)c(-c2nnn(Cc3ccccc3F)n2)c1` [Compound 25, 3-(2-(2-fluorobenzyl)-2H-tetrazol-5-yl)-4-((4-(trifluoromethyl)phenyl)amino) benzoic acid], the concentration for half-maximal inhibition (IC50) is ≤ 100 nM.

As to `COC(=O)c1ccc(Nc2cccc(C(F)(F)F)c2)c(-c2nnn(Cc3ccccc3F)n2)c1` [Compound 26, methyl 3-(2-(2-fluorobenzyl)-2H-tetrazol-5-yl)-4-((3-(trifluoromethyl)phenyl)amino) benzoate], the IC50 fell in the range of 100 to 1000 nM.

In the case of `O=C(O)c1ccc(Nc2cccc(C(F)(F)F)c2)c(-c2nnn(Cc3ccccc3F)n2)c1` [Compound 27, 3-(2-(2-fluorobenzyl)-2H-tetrazol-5-yl)-4-((3-(trifluoromethyl)phenyl)amino) benzoic acid], the 50% inhibitory concentration (IC50) is ≤ 100 nM.

On to `Cn1cnc(-c2cc(C(=O)O)ccc2Nc2ccc(C(F)(F)F)cc2)c1` [Compound 28, 3-(1-methyl-1H-imidazol-4-yl)-4-((4-(trifluoromethyl)phenyl)amino) benzoic acid], for which the IC50 was ≤ 100 nM.

Turning to `CC(C)NC(=O)c1ccc(Nc2ccc(C(F)(F)F)cc2)c(-c2ccnc(N)c2)c1` [Compound 29, 3-(2-aminopyridin-4-yl)-N-isopropyl-4-((4-(trifluoromethyl)phenyl)amino) benzamide], the IC50 lay within 100 to 1000 nM.

Regarding `Nc1cc(-c2cc(C(=O)O)ccc2Nc2ccc(C(F)(F)F)cc2)ccn1` [Compound 30, 3-(2-aminopyridin-4-yl)-4-((4-(trifluoromethyl)phenyl)amino) benzoic acid], the IC50 is ≤ 100 nM.

Turning to `COC(=O)c1ccc(Nc2ccc(C(F)(F)F)cc2)c(-c2cn(C)cn2)c1` [Compound 33, methyl 3-(1-methyl-1H-imidazol-4-yl)-4-((4-(trifluoromethyl)phenyl)amino)benzoate], the IC50 was ≤ 100 nM.

Regarding `COC(=O)c1ccc(Nc2ccc(C(F)(F)F)cc2)c(-c2ccnc(N)c2)c1` [Compound 34, methyl 3-(2-amino-4-pyridyl)-4-[4-(trifluoromethyl)anilino] benzoate], the IC50 is ≤ 100 nM.

Turning to `CC(C)NC(=O)c1ccc(Nc2ccc(C(F)(F)F)cc2)c(-c2cn(C)cn2)c1` [Compound 36, N-Isopropyl-3-(-methylimidazol-4-yl)-4-[4-(trifluoromethyl)anilino] benzamide], the IC50 is ≤ 100 nM.

For orientation: IC50 means the concentration that gives 50% inhibition. A high value points to a need for much substance.

The values above are taken from patent US11524943B1 (Vivace Therapeutics, Inc., priority 2017, dated 2022).
